Source: article PMC6943619, “Synthesis and Pharmacological Evaluation of Hybrids Targeting Opioid and Neurokinin Receptors” (Molecules, 2019)
Like-named read-outs stand apart in the source and are kept apart here. Where a SMILES comes first, the peptide text is derived from it. Bridges are numbered along the chain shown (N, C = ends). [ ]: non-standard residue; d: D form. Nle = CCCC[C@H](N)C(=O)O

Assays:
human NK1 [1] = molecular target: T1, human NK1 (Homo sapiens, UniProt P25103); experiment: Calcium mobilization functional assay, agonist mode, CHONK1 cells; type: cell-based; parameters: expressed in transfected cells; host or cells: CHO cells (gift of Prof. T. Costa, ISS, Rome); conditions: for NK1 α ± SEM: efficacy (intrinsic activity), Emax relative to SP
T1 sequence (P25103 whole entry): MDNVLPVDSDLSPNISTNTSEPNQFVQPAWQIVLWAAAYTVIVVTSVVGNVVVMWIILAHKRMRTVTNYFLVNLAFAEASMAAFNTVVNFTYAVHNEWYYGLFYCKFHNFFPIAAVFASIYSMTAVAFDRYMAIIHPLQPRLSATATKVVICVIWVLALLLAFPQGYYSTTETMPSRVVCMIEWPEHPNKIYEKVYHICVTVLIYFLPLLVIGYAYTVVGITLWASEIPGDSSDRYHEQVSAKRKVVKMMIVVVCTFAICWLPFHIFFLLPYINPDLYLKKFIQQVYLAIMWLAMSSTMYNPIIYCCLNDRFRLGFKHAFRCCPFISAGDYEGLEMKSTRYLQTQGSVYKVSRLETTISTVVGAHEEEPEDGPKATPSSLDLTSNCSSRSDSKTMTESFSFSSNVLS

[2] = molecular target: T2, human opioid receptor DOR (Homo sapiens, UniProt P41143); experiment: Radioligand binding assay, displacement of [3H]deltorphin-2; conditions: displacement of [3H]deltorphin-2 from membranes of CHO cells transfected with human DOR, 50 mM Tris/HCl pH 7.4, 0.5% BSA, peptidase inhibitors, 2 h at 25 °C, mean ± SEM, n ≥ 3
T2 construct: purchased PerkinElmer (Krakow, Poland); host or cells: CHO cell membranes
T2 sequence (P41143 whole entry): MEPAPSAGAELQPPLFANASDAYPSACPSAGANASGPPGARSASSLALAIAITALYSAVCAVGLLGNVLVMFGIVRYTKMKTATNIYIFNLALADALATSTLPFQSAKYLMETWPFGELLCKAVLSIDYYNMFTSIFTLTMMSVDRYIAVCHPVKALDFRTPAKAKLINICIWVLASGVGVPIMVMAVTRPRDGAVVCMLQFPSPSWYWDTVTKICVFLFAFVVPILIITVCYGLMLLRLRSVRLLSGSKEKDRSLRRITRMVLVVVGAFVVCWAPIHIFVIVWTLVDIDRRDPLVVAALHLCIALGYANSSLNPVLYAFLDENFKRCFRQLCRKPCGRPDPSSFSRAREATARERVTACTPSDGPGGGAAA
Experimental: A radioligand binding assay was performed to determine the opioid receptor (OR) binding affinities of the novel analogs using commercially available membranes of Chinese hamster ovary cells (CHO) transfected with human recombinant ORs. […] Tyr-[D-Lys-Phe-Phe-Asp]NH2 (1) was used as a reference opioid compound.
(§1) To determine the affinity of peptide analogs to respective receptors, competition binding experiments were performed, as described in detail elsewhere.
(§2) Commercial membranes of CHO cells stably expressing either human ORs or NK1 receptor were used. […] Membranes were incubated in a 0.5 mL volume of 50 mM Tris/HCl (pH = 7.4), 0.5% bovine serum albumin (BSA), with a number of peptidase inhibitors (bacitracin, bestatin, captopril) and various concentrations of radioligands for 2 h at 25 °C.
(§3) The pharmacological terminology adopted in this paper is consistent with International Union of Basic and Clinical Pharmacology (IUPHAR) recommendations. Concentration–response curves were analyzed by nonlinear regression using Graph Pad Prism 6.0 (La Jolla, CA, USA). […] Concentration–response curves were fitted with the four-parameter logistic nonlinear regression model (1) Effect=baseline+Emax−baseline/1+10^logEC50−X·n where X is the agonist concentration and n is the Hill coefficient. Ligand efficacy was expressed as intrinsic activity (α) calculated as a ratio of the peptide Emax to the Emax of the standard agonist (Supplementary Materials, Figure S7). […] All statistical analyses were performed using Graph Pad Prism 6.0 (La Jolla, CA, USA). Differences between groups were analyzed with one-way ANOVA and a post hoc multiple comparison by the Student–Newman–Keuls test. A probability level of 0.05 or smaller was used to indicate statistical significance.

human NK1 [3] = molecular target: T1, human NK1; experiment: Radioligand binding assay, displacement of [3H][Sar9, Met(O2)11]SP; parameters: purchased PerkinElmer (Krakow, Poland); host or cells: CHO cell membranes; conditions: displacement of [3H][Sar9, Met(O2)11]SP from membranes of CHO cells transfected with human NK1 receptor; 50 mM Tris/HCl pH 7.4, 0.5% BSA, peptidase inhibitors, 2 h at 25 °C; mean ± SEM, n ≥ 3; SEM
Experimental: The binding assay was also used to examine the affinity of the synthesized hybrids for NK1 in commercial membranes of CHO cells stably expressing human NK1.
as §1, §2, §3

human NK1 [4] = molecular target: T1, human NK1; experiment: Calcium mobilization assay, inhibition response experiments against SP; type: cell-based; parameters: expressed in transfected cells; host or cells: CHO cells (gift of Prof. T. Costa, ISS, Rome)
Experimental: Following aspiration of the loading solution and a washing step, serial dilutions of peptide stock solutions were added.
as §3

DOR = molecular target: T3, DOR (Homo sapiens, UniProt P41143); experiment: Calcium mobilization functional assay, agonist mode; type: cell-based; conditions: CHO cells co-expressing DOR and GαqG66Di5, n = 5; for DOR α ± SEM: efficacy (intrinsic activity), Emax relative to DPDPE, mean ± SEM; for EC50: read-out: DOR pEC50 (CL95%) (converted)
T3 construct: expressed in transfected cells; host or cells: CHO cells (University of Ferrara), co-expressing GαqG66Di5
T3 sequence (P41143 whole entry): as above

[5] = molecular target: T4, human opioid receptor KOR (Homo sapiens, UniProt P41145); experiment: Radioligand binding assay, displacement of [3H]U-69593; conditions: displacement of [3H]U-69593 from membranes of CHO cells transfected with human KOR, 50 mM Tris/HCl pH 7.4, 0.5% BSA, peptidase inhibitors, 2 h at 25 °C, mean ± SEM, n ≥ 3
T4 construct: purchased PerkinElmer (Krakow, Poland); host or cells: CHO cell membranes
T4 sequence (P41145 whole entry): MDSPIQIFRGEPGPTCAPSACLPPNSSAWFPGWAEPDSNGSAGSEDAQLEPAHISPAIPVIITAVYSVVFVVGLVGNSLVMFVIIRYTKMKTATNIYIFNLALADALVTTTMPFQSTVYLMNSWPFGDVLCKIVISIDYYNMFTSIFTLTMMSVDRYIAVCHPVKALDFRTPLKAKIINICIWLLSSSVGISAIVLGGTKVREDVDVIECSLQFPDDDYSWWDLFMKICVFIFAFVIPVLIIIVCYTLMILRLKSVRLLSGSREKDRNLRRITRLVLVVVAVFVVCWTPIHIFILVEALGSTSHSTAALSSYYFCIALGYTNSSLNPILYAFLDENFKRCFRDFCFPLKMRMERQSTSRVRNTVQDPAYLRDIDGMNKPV
Experimental: (§4) A radioligand binding assay was performed to determine the opioid receptor (OR) binding affinities of the novel analogs using commercially available membranes of Chinese hamster ovary cells (CHO) transfected with human recombinant ORs. [^3H]DAMGO, [^3H]deltorphin-2, and [^3H]U-69593 were used as the radioligands for MOR, DOR, and KOR, respectively. Tyr-[D-Lys-Phe-Phe-Asp]NH2 (1) was used as a reference opioid compound. […] None of them acquired significant DOR affinity.
as §1
(§5) Commercial membranes of CHO cells stably expressing either human ORs or NK1 receptor were used. [^3H]DAMGO, [^3H]deltorphin-2, and [^3H]U-69593 were employed as the competing radioligands for MOR, DOR, and KOR, respectively, while [^3H][Sar^9, Met(O2)^11]SP was utilized for the NK1 receptor. Membranes were incubated in a 0.5 mL volume of 50 mM Tris/HCl (pH = 7.4), 0.5% bovine serum albumin (BSA), with a number of peptidase inhibitors (bacitracin, bestatin, captopril) and various concentrations of radioligands for 2 h at 25 °C. Nonspecific binding was assessed in the presence of […] naloxone for ORs or SP for NK1 receptor.
(§6) The pharmacological terminology adopted in this paper is consistent with International Union of Basic and Clinical Pharmacology (IUPHAR) recommendations. Concentration–response curves were analyzed by nonlinear regression using Graph Pad Prism 6.0 (La Jolla, CA, USA). […]. […] Concentration–response curves were fitted with the four-parameter logistic nonlinear regression model (1) Effect=baseline+Emax−baseline/1+10^logEC50−X·n where X is the agonist concentration and n is the Hill coefficient. Ligand efficacy was expressed as intrinsic activity (α) calculated as a ratio of the peptide Emax to the Emax of the standard agonist (Supplementary Materials, Figure S7). […]. All statistical analyses were performed using Graph Pad Prism 6.0 (La Jolla, CA, USA). Differences between groups were analyzed with one-way ANOVA and a post hoc multiple comparison by the Student–Newman–Keuls test. A probability level of 0.05 or smaller was used to indicate statistical significance.

human MOR = molecular target: T5, human MOR (Homo sapiens, UniProt P35372); experiment: Calcium mobilization functional assay, agonist mode; type: cell-based; conditions: CHO cells co-expressing human MOR and Gαqi5, n = 5; for EC50: Fluo-4 AM calcium signal, read-out: MOR pEC50 (CL95%) (converted); for MOR α ± SEM: efficacy (intrinsic activity), Emax relative to EM-2, mean ± SEM
T5 construct: expressed in transfected cells; host or cells: CHO cells (University of Ferrara), co-expressing Gαqi5
T5 sequence (P35372 whole entry): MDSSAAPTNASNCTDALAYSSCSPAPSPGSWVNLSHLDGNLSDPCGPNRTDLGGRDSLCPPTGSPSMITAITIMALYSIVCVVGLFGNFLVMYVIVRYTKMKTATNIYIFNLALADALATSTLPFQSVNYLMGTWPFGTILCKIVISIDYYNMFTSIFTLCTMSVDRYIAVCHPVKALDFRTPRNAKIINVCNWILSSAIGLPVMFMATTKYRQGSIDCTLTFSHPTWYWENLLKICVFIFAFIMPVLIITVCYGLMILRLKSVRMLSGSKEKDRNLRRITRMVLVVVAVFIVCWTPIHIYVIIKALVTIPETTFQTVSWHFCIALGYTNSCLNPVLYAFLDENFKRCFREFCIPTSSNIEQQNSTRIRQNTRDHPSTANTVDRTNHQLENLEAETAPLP

human KOR = molecular target: T6, human KOR (Homo sapiens, UniProt P41145); experiment: as above; type: cell-based; conditions: for KOR α ± SEM: efficacy (intrinsic activity), Emax relative to dynorphin A, mean ± SEM
T6 construct: expressed in transfected cells; host or cells: CHO cells (University of Ferrara), co-expressing Gαqi5
T6 sequence (P41145 whole entry): as the sequence (P41145 whole entry) above

[6] = molecular target: T7, human opioid receptor MOR (Homo sapiens, UniProt P35372); experiment: Radioligand binding assay, displacement of [3H]DAMGO; conditions: displacement of [3H]DAMGO from membranes of CHO cells transfected with human MOR, 50 mM Tris/HCl pH 7.4, 0.5% BSA, peptidase inhibitors, 2 h at 25 °C, mean ± SEM, n ≥ 3
T7 construct: purchased PerkinElmer (Krakow, Poland); host or cells: CHO cell membranes
T7 sequence (P35372 whole entry): as the sequence (P35372 whole entry) above
Experimental: as §4, §1, §5, §6

[7] = CHO cells co-expressing human KOR and Gαqi5, Fluo-4 AM calcium signal, n = 5, read-out: KOR pEC50 (CL95%) (converted)
[8] = CHO cells co-expressing human KOR and Gαqi5, n = 5

Structure (SMILES) | effect per se on intracellular calcium levels (tested as an agonist) (human NK1 [1]; CHONK1 cells, up to 10 µM) | Ki [2] [nM] | NK1 pEC50 (CL95%) (human NK1 [1]; CHO cells expressing human NK1 (CHONK1), Fluo-4 AM calcium signal, N = 5) | NK1 α ± SEM (human NK1 [1]; CHONK1 cells, N = 5) | Ki (human NK1 [3]) [nM] | Kb (human NK1 [4]) [nM] | DOR pEC50 (CL95%) (DOR; Fluo-4 AM calcium signal) | DOR α ± SEM (DOR) | Ki [5] [nM] | EC50 (human MOR) [nM] | MOR α ± SEM (human MOR) | MOR α ± SEM (human MOR; SEM) | EC50 (human KOR; [7]) [nM] | KOR α ± SEM (human KOR; [8]) | Ki [6] [nM] | EC50 (human NK1 [1]) [nM] | NK1 α ± SEM (human NK1 [1]; CHONK1 cells, N = 5, SEM) | EC50 (DOR; Fluo-4 AM calcium signal) [nM] | DOR α ± SEM (DOR; SEM) | EC50 (human KOR) [nM]
C[C@@H](O[C@H]1OCCN(Cc2n[nH]c(=O)[nH]2)[C@H]1c1ccc(F)cc1)c1cc(C(F)(F)F)cc(C(F)(F)F)c1 [aprepitant, reference compound] | did not modify |  |  |  |  |  |  |  |  |  |  |  |  |  |  |  |  |  |  | 
CCCC[C@H](NC(=O)[C@H](CC(C)C)NC(=O)[C@@H](Cc1c[nH]c2ccccc12)NC(=O)[C@H](Cc1ccccc1)NC(=O)[C@@H](Cc1c[nH]c2ccccc12)NC(=O)[C@@H]1CC(=O)NCCCC[C@@H](NC(=O)[C@@H](N)Cc2ccc(O)cc2)C(=O)N[C@@H](Cc2ccccc2)C(=O)N[C@@H](Cc2ccccc2)C(=O)N1)C(N)=O [compound 3, Tyr-[D-Lys-Phe-Phe-Asp]-D-Trp-Phe-D-Trp-Leu-Nle-NH2] (H-Y[dK]FFD[dW]F[dW]L[Nle]-NH2; lactam 2-5) |  | 213 ± 6.31 | Inactive | Inactive | 12.8 ± 0.92 | 23.4 | Crc incomplete | Crc incomplete | 2.85 ± 0.44 | 174 | 0.72 | 0.72 ± 0.04 | 3.55 | 1.05 ± 0.05 | 28.2 ± 1.45 |  |  |  |  | 
CSCC[C@H](NC(=O)[C@H](CC(C)C)NC(=O)CNC(=O)[C@H](Cc1ccccc1)NC(=O)[C@H](Cc1ccccc1)NC(=O)[C@@H]1CC(=O)NCCCC[C@@H](NC(=O)[C@@H](N)Cc2ccc(O)cc2)C(=O)N[C@@H](Cc2ccccc2)C(=O)N[C@@H](Cc2ccccc2)C(=O)N1)C(N)=O [compound 5, Tyr-[D-Lys-Phe-Phe-Asp]-Phe-Phe-Gly-Leu-Met-NH2] (H-Y[dK]FFDFFGLM-NH2; lactam 2-5) |  | 96.6 ± 3.8 |  |  | 51.6 ± 4.2 |  |  |  | 28.3 ± 1.71 |  |  | 0.86 ± 0.03 |  | 0.64 ± 0.04 | 4.9 ± 0.34 | 15.8 | 1.11 ± 0.05 | 389 | 0.50 ± 0.01 | 67.6
CSCC[C@H](NC(=O)[C@H](CC(C)C)NC(=O)CNC(=O)[C@H](Cc1ccccc1)NC(=O)[C@@H]1CC(=O)NCCCC[C@@H](NC(=O)[C@@H](N)Cc2ccc(O)cc2)C(=O)N[C@@H](Cc2ccccc2)C(=O)N[C@@H](Cc2ccccc2)C(=O)N1)C(N)=O [compound 6, Tyr-[D-Lys-Phe-Phe-Asp]-Phe-Gly-Leu-Met-NH2] (H-Y[dK]FFDFGLM-NH2; lactam 2-5) |  | 28.7 ± 1.01 |  |  | 2330 ± 189 |  |  |  | 2.7 ± 0.12 | 9.12 |  | 0.81 ± 0.05 | 4.68 | 0.92 ± 0.02 | 2.98 ± 0.14 | 776 | 1.03 ± 0.05 | 151 | 0.65 ± 0.05 | 
CSCC[C@H](NC(=O)[C@H](CC(C)C)NC(=O)CNC(=O)[C@@H]1CC(=O)NCCCC[C@@H](NC(=O)[C@@H](N)Cc2ccc(O)cc2)C(=O)N[C@@H](Cc2ccccc2)C(=O)N[C@@H](Cc2ccccc2)C(=O)N1)C(N)=O [compound 7, Tyr-[D-Lys-Phe-Phe-Asp]-Gly-Leu-Met-NH2] (H-Y[dK]FFDGLM-NH2; lactam 2-5) |  | 113 ± 4.6 |  |  | 8130 ± 724 |  |  |  | 0.89 ± 0.04 | 2.04 |  | 0.85 ± 0.05 | 1.58 | 1.06 ± 0.06 | 1.14 ± 0.21 | 2090 | 0.99 ± 0.08 | 363 | 0.38 ± 0.04 | 
